This note sets out measurements from DBAASP.

Values after ≈ are worked out from the molar mass of the structure shown.

Among the test systems are Candida krusei ATCC 6258; Staphylococcus aureus MR; Bacillus subtilis 168; Escherichia coli BL21; Ralstonia solanacearum; Escherichia coli UB1005.
Common to all, as to assay: ≥ marks a high value that may be exact or a test limit, other limits are often not marked, values filed in µg/mL are converted to µM
Assay [1] concerns Staphylococcus aureus CECT 435.
In assay [2] the test system is Enterococcus faecalis CECT 481.
In assay [3] the test system is Candida glabrata ATCC 90030.
Assay [4] concerns Streptococcus agalactiae CECT 183T.
Assay [5] deals with Escherichia coli CECT 434.
Assay [6] relates to Staphylococcus aureus NCTC 12493.
The test system of assay [7] is Klebsiella pneumoniae ATCC 43816.
The test system of assay [8] is Pseudomonas aeruginosa ATCC 27853.
The test system of assay [9] is Escherichia coli NCTC 10418.
For assay [10], the system named is Staphylococcus aureus NCTC 10788.
Assay [11] has as its system Candida albicans NCTC 1467.
The subject of assay [12] is Clavibacter michiganensis subsp. michiganensis.
Assay [13] concerns Pseudomonas syringae pv. tomato DC3000.
Assay [14] deals with Xanthomonas oryzae pv. oryzae.
Assay [15] concerns Xanthomonas campestris pv. holcicola.
The test system of assay [16] is Salmonella enterica subsp. enterica serovar Typhimurium ATCC 14028s.
Assay [17] deals with Pseudomonas aeruginosa K799.
For assay [18], the system named is Pseudomonas aeruginosa H744.
The test system of assay [19] is Pseudomonas aeruginosa Z61.
In assay [20] the test system is Pseudomonas aeruginosa H374.
Assay [21] has as its system Pseudomonas aeruginosa H547.
Assay [22] deals with Burkholderia cepacia ATCC 25416.
Assay [23] concerns Aspergillus oryzae NBRC 100959.
In assay [24] the test system is Staphylococcus epidermidis NBRC 12993.
Assay [25] has as its system Micrococcus luteus NBRC 3333.
Assay [26] deals with Escherichia coli NBRC 3972.
Assay [27] relates to Candida viswanathii NBRC 10321.
In assay [28] the test system is Bacillus cereus ATCC 10876.
In assay [29] the test system is Streptococcus agalactiae ATCC 27956.
The test system of assay [30] is Enterococcus faecalis ATCC 29212.
Assay [31] has as its system Streptococcus dysgalactiae subsp. dysgalactiae ATCC 27957.
In assay [32] the test system is Streptococcus equi subsp. zooepidemicus ATCC 43079.
The test system of assay [33] is Staphylococcus aureus ATCC 6538.
In assay [34] the test system is Salmonella enterica subsp. enterica serovar Typhimurium ATCC 14028.

For `CC[C@H](C)[C@H](NC(=O)CNC(=O)[C@H](CCC(N)=O)NC(=O)[C@@H](NC(=O)[C@@H]1CCCN1C(=O)CNC(=O)[C@H](CC(=O)O)NC(=O)CNC(=O)[C@H](CCCCN)NC(=O)[C@H](CC(C)C)NC(=O)[C@@H](NC(=O)[C@H](CS)NC(=O)[C@@H](NC(=O)[C@H](C)NC(=O)[C@H](CCCCN)NC(=O)[C@@H](NC(=O)[C@H](C)N)[C@@H](C)O)C(C)C)C(C)C)C(C)C)C(=O)N[C@H](C(=O)N[C@@H](CC(N)=O)C(=O)N[C@@H](Cc1ccccc1)C(=O)O)[C@@H](C)CC` [ATKAVCVLKGDGPVQGIINF], the minimal inhibitory concentration (MIC) (in general, the lowest concentration found to suppress growth) against Candida krusei ATCC 6258 is 3.94 µM (≈ 8 µg/mL); in the assay on Staphylococcus aureus MR, 7.88 µM (≈ 16 µg/mL); in assay [1], 7.88 µM (≈ 16 µg/mL); in assay [2], 7.88 µM (≈ 16 µg/mL); in assay [3] it was ≥ 126 µM; in [4], 7.88 µM (≈ 16 µg/mL). The same molecule had an MIC in assay [5] of 31.5 µM (≈ 64 µg/mL).

For the molecule `CC[C@H](C)[C@@H]1NC(=O)[C@H](CC(C)C)NC(=O)[C@@H](NC(=O)[C@H](Cc2ccccc2)NC(=O)[C@H](CC(C)C)NC(=O)[C@H](CCCCN)NC(=O)[C@H](Cc2ccc(O)cc2)NC(=O)[C@H](CC(C)C)NC(=O)[C@@H](NC(=O)[C@H](CCCCN)NC(=O)[C@@H](NC(=O)[C@@H](NC(=O)[C@H](C)NC(=O)CNC(=O)[C@H](CC(C)C)NC(=O)[C@H](C)NC(=O)[C@@H](N)Cc2ccccc2)C(C)C)[C@@H](C)O)C(C)C)CSSC[C@@H](C(=O)O)NC(=O)[C@H](CCCCN)NC(=O)[C@H](CCCN=C(N)N)NC(=O)[C@H]([C@@H](C)O)NC1=O` [FALGAVTKVLYKLFCLITRKC], the MIC was 8 µM (≈ 19.1 µg/mL) in assay [6]; ≥ 128 µM in assay [7]; > 128 µM in assay [8]; ≥ 128 µM in [9]; 4 µM (≈ 9.54 µg/mL) in [10]; ≥ 64 µM in [11].

On to `CC[C@H](C)[C@H](NC(=O)CNC(=O)[C@H](C)NC(=O)CN)C(=O)NCC(=O)N1CCC[C@H]1C(=O)NCC(=O)N[C@@H](Cc1cnc[nH]1)C(=O)N[C@@H](CCCN=C(N)N)C(=O)N[C@@H](CCCN=C(N)N)C(=O)N[C@H](C(=O)N[C@@H](Cc1c[nH]c2ccccc12)C(=O)N[C@@H](CCCN=C(N)N)C(=O)N[C@@H](CCCN=C(N)N)C(=O)N[C@@H](Cc1c[nH]c2ccccc12)C(=O)N1CCC[C@H]1C(=O)N[C@@H](CCCN=C(N)N)C(=O)N[C@@H](CCCN=C(N)N)C(=O)N[C@@H](CCCN=C(N)N)C(=O)N[C@@H](Cc1c[nH]c2ccccc12)C(=O)N[C@@H](CCCN=C(N)N)C(=O)O)[C@@H](C)O` [GAGIGPGHRRTWRRWPRRRWR], for which the MIC against Bacillus subtilis 168 turned out to be 16 µM (≈ 42.7 µg/mL); with Escherichia coli BL21, 16 µM (≈ 42.7 µg/mL); in [12], 16 µM (≈ 42.7 µg/mL); in the assay on Ralstonia solanacearum, 8 µM (≈ 21.4 µg/mL); in assay [13] it was 4 µM (≈ 10.7 µg/mL); in assay [14], 4 µM (≈ 10.7 µg/mL). In assay [15], this molecule showed an MIC of 16 µM (≈ 42.7 µg/mL).

Take `CC[C@H](C)[C@H](NC(=O)CNC(=O)[C@@H](NC(=O)[C@H](CCCCN)NC(=O)[C@H](CCCCN)NC(=O)[C@@H](NC(=O)[C@H](Cc1ccccc1)NC(=O)[C@H](CCCCN)NC(=O)[C@H](CCCCN)NC(=O)[C@H](Cc1c[nH]c2ccccc12)NC(=O)[C@H](CCCCN)NC(=O)[C@@H](N)CCCCN)[C@@H](C)CC)[C@@H](C)CC)C(=O)NCC(=O)N[C@@H](C)C(=O)N[C@H](C(=O)N[C@@H](CC(C)C)C(=O)N[C@H](C(=O)N[C@H](C(=O)N1CCC[C@H]1C(=O)NCC(=O)N[C@@H](C)C(=O)N[C@@H](CCCCN)C(=O)N[C@@H](CCCCN)C(=O)O)[C@@H](C)O)[C@@H](C)O)C(C)C` [KKWKKFIKKIGIGAVLTTPGAKK]: the MIC against Escherichia coli UB1005 is 1.57 µM (≈ 4 µg/mL); in [16] it was 1.57 µM (≈ 4 µg/mL); in [17], 25.2 µM (≈ 64 µg/mL); in assay [18], 1.57 µM (≈ 4 µg/mL); in [19] it was 12.6 µM (≈ 32 µg/mL); in [20] it was 3.15 µM (≈ 8 µg/mL). For the same molecule, the MIC in [21] was found to be 6.3 µM (≈ 16 µg/mL); in [22] it was 25.2 µM (≈ 64 µg/mL).

In the case of `CC[C@H](C)[C@H](NC(=O)[C@H](CC(C)C)NC(=O)[C@@H](N)CCCN=C(N)N)C(=O)N[C@@H](CCCCN)C(=O)N[C@@H](CCCN=C(N)N)C(=O)N[C@@H](Cc1ccc(O)cc1)C(=O)N[C@@H](CC(C)C)C(=O)N[C@@H](CCCN=C(N)N)C(=O)N[C@@H](CCCN=C(N)N)C(=O)N[C@@H](CCSC)C(=O)N[C@@H](Cc1c[nH]c2ccccc12)C(=O)O` [RLIKRYLRRMW], the MIC in [23] was ≥ 126 µM; in assay [24] it was ≥ 126 µM; in assay [25] it was ≥ 62.9 µM; in assay [26], ≥ 503 µM; in assay [27] it was ≥ 62.9 µM.

Regarding `CC[C@H](C)[C@H](NC(=O)[C@H](CC(C)C)NC(=O)[C@H](CC(N)=O)NC(=O)CNC(=O)[C@H](Cc1ccccc1)NC(=O)[C@@H](NC(=O)[C@H](CCCN=C(N)N)NC(=O)[C@@H](NC(=O)[C@H](CC(C)C)NC(=O)[C@H](CCC(N)=O)NC(=O)[C@H](Cc1ccc(O)cc1)NC(=O)[C@@H](N)Cc1c[nH]c2ccccc12)[C@@H](C)CC)[C@@H](C)O)C(=O)N[C@@H](Cc1cnc[nH]1)C(=O)N[C@@H](CCC(N)=O)C(=O)N[C@@H](CCCCN)C(=O)N[C@@H](Cc1ccc(O)cc1)C(=O)N[C@@H](CCCN=C(N)N)C(=O)N[C@@H](CCCCN)C(=O)N[C@@H](CC(C)C)C(=O)N[C@@H](CC(C)C)C(=O)N[C@@H](CCC(=O)O)C(=O)N[C@@H](C)C(=O)N[C@@H](Cc1ccc(O)cc1)C(=O)N[C@@H](CCCN=C(N)N)C(=O)N[C@@H](CCCCN)C(=O)N[C@@H](CC(C)C)C(=O)N[C@@H](CCCN=C(N)N)C(=O)N[C@@H](CC(=O)O)C(=O)O` [WYQLIRTFGNLIHQKYRKLLEAYRKLRD], the MIC in [28] was 1.66 µM (≈ 6 µg/mL); in [8] it was > 8.83 µM; in assay [29], 11 µM (≈ 39.9 µg/mL); in assay [30] it was 0.552 µM (≈ 2 µg/mL); in assay [31] it was 11 µM (≈ 39.9 µg/mL); in assay [32], 11 µM (≈ 39.9 µg/mL). Further, the results for the MIC in assay [33] and in assay [34] were 0.414 µM (≈ 1.5 µg/mL) and > 8.83 µM, respectively.
